# Experiments:
# Type in all cases: cell-based, human
# [1] = system: SW1990 pancreatic cancer cells; experiment: MTS assay of SW1990 cultures, single 50 μM dose; settings: SW1990, 50 μM
# Description: SW1990 pancreatic cancer cells […] were cultured in complete DMEM media containing 10% fetal bovine serum (FBS) and 1% penicillin-streptomycin, and 1% L-glutamine. BxPc-3 pancreatic cancer cells were cultured in complete RPMI media containing 10% fetal bovine serum (FBS), and 1% penicillin-streptomycin, 1% HEPES buffer, 1% sodium pyruvate and 1% L-glutamine. HPDE6-C7 cells were cultured in serum-free keratinocyte SFM media. All cells were maintained at 37° C. in a humidified incubator with 5% CO2. The cells were treated with a single 50 μM dose of vehicle (ethanol extracted olive oil), T3 alpha (alpha tocotrienol), T3 beta (beta tocotrienol), T3 gamma (gamma tocotrienol), T3 delta (delta tocotrienol), T alpha (alpha tocopherol), T beta (beta tocopherol), TS (tocopherol succinate), GG (geranylgeraniol), SA (succinic acid). A control culture (i.e., only vehicle with no treatment) was grown alongside the treatments for comparison. Cell viability was measured using MTS assay at preselect times of 24, 48, or 72 hours after treatment.
# [2] = system: MiaPaCa-2 cells; experiment: MTT assay of MiaPaCa2 cultures, single 50 μM dose; set-up: rel amt (relative value set to the control): unit not given here; settings: MiaPaCa2, 50 μM; for MTT assay result, av-blank: average minus blank; for MTT assay result, av: average of 7 runs
# Description: MiaPaCa-2, BxPc-3, and HPDE6-C7 cells were cultured as described above, and treated with a single 50 μM dose of vehicle (ethanol extracted olive oil), T3 alpha (alpha tocotrienol), T3 beta (beta tocotrienol), T3 gamma (gamma tocotrienol), T3 delta (delta tocotrienol), T alpha (alpha tocopherol), T beta (beta tocopherol), TS (tocopherol succinate), GG (geranylgeraniol), SA (succinic acid). A control culture (vehicle only with no treatment) was grown alongside the treatments for comparison. Cell viability was measured using MTT assay at preselect times of 48 or 120 hours after treatment.
# [3] = system: MiaPaCa-2 cells; experiment: MTS assay of MiaPaCa2 cultures, single 50 μM dose; settings: MiaPaCa2, 50 μM
# Description: MiaPaCa-2 cells were cultured in complete DMEM media containing 10% fetal bovine serum (FBS) and 1% penicillin-streptomycin, and 1% L-glutamine. BxPc-3 pancreatic cancer cells were cultured in complete RPMI media containing 10% fetal bovine serum (FBS), and 1% penicillin-streptomycin, 1% HEPES buffer, 1% sodium pyruvate and 1% L-glutamine HPDE6-C7 cells were cultured in serum-free keratinocyte SFM media. All cells were maintained at 37° C. in a humidified incubator with 5% CO2. The cells were treated with a single 50 μM dose of vehicle (vehicle only, may be a solvent), T3 alpha (alpha tocotrienol), T3 beta (beta tocotrienol), T3 gamma (gamma tocotrienol), T3 delta (delta tocotrienol), T alpha (alpha tocopherol), T beta (beta tocopherol), TS (tocopherol succinate), GG (geranylgeraniol), SA (succinic acid). A control (no treatment) culture was grown alongside the treatments for comparison. […]
compound,measurement,setting,value
"CC(C)=CCC/C(C)=C/CC/C(C)=C/CC[C@]1(C)CCc2c(C)c(O)cc(C)c2O1 [T3 beta, beta tocotrienol]",rel amnt (relative value set to the control),[1]; 24 hours,99
same,"MTS assay result, run 1",[1]; 24 hours,0.164
same,"MTS assay result, run 2",[1]; 24 hours,0.168
same,"MTS assay result, run 3",[1]; 24 hours,0.167
same,"MTS assay result, run 4",[1]; 24 hours,0.123
same,"MTS assay result, run 5",[1]; 24 hours,0.138
same,"MTS assay result, run 6",[1]; 24 hours,0.143
same,"MTS assay result, run 7",[1]; 24 hours,0.126
same,"MTS assay result, run 8",[1]; 24 hours,0.134
same,"MTS assay result, run 9",[1]; 24 hours,0.145
same,rel amnt (relative value set to the control),[1]; 48 hours,68
same,"MTS assay result, run 1",[1]; 48 hours,0.108
same,"MTS assay result, run 2",[1]; 48 hours,0.093
same,"MTS assay result, run 3",[1]; 48 hours,0.09
same,"MTS assay result, run 4",[1]; 48 hours,0.104
same,"MTS assay result, run 5",[1]; 48 hours,0.109
same,"MTS assay result, run 6",[1]; 48 hours,0.117
same,"MTS assay result, run 7",[1]; 48 hours,0.1
same,"MTS assay result, run 8",[1]; 48 hours,0.102
same,"MTS assay result, run 9",[1]; 48 hours,0.104
same,rel amnt (relative value set to the control),[1]; 72 hours,69
same,"MTS assay result, run 1",[1]; 72 hours,0.349
same,"MTS assay result, run 2",[1]; 72 hours,0.316
same,"MTS assay result, run 3",[1]; 72 hours,0.33
same,"MTS assay result, run 4",[1]; 72 hours,0.298
same,"MTS assay result, run 5",[1]; 72 hours,0.323
same,"MTS assay result, run 6",[1]; 72 hours,0.287
same,"MTS assay result, run 7",[1]; 72 hours,0.28
same,"MTS assay result, run 8",[1]; 72 hours,0.275
same,"MTS assay result, run 9",[1]; 72 hours,0.307
same,rel amt (relative value set to the control),[2]; 48 hours,62
same,"MTT assay result, av-blank",[2]; 48 hours,0.193
same,"MTT assay result, av",[2]; 48 hours,0.239
same,"MTT assay result, run 1",[2]; 48 hours,0.272
same,"MTT assay result, run 2",[2]; 48 hours,0.235
same,"MTT assay result, run 3",[2]; 48 hours,0.233
same,"MTT assay result, run 4",[2]; 48 hours,0.226
same,"MTT assay result, run 5",[2]; 48 hours,0.252
same,"MTT assay result, run 6",[2]; 48 hours,0.219
same,"MTT assay result, run 7",[2]; 48 hours,0.239
same,rel amt (relative value set to the control),[2]; 120 hours (5 days),53
same,"MTT assay result, av-blank",[2]; 120 hours (5 days),0.966
same,"MTT assay result, av",[2]; 120 hours (5 days),1.018
same,"MTT assay result, run 1",[2]; 120 hours (5 days),0.97
same,"MTT assay result, run 2",[2]; 120 hours (5 days),0.781
same,"MTT assay result, run 3",[2]; 120 hours (5 days),0.977
same,"MTT assay result, run 4",[2]; 120 hours (5 days),1.154
same,"MTT assay result, run 5",[2]; 120 hours (5 days),1.408
same,"MTT assay result, run 6",[2]; 120 hours (5 days),0.944
same,"MTT assay result, run 7",[2]; 120 hours (5 days),0.891
same,rel amt (relative value set to the control),[3]; 24 hours,79
same,"MTS assay result, run 1",[3]; 24 hours,0.17
same,"MTS assay result, run 2",[3]; 24 hours,0.179
same,"MTS assay result, run 3",[3]; 24 hours,0.184
same,"MTS assay result, run 4",[3]; 24 hours,0.152
same,"MTS assay result, run 5",[3]; 24 hours,0.172
same,"MTS assay result, run 6",[3]; 24 hours,0.182
same,"MTS assay result, run 7",[3]; 24 hours,0.179
same,"MTS assay result, run 8",[3]; 24 hours,0.19
same,"MTS assay result, run 9",[3]; 24 hours,0.176
same,rel amt (relative value set to the control),[3]; 48 hours,61
same,"MTS assay result, run 1",[3]; 48 hours,0.193
same,"MTS assay result, run 2",[3]; 48 hours,0.137
same,"MTS assay result, run 3",[3]; 48 hours,0.227
same,"MTS assay result, run 4",[3]; 48 hours,0.223
same,"MTS assay result, run 5",[3]; 48 hours,0.231
same,"MTS assay result, run 6",[3]; 48 hours,0.272
same,"MTS assay result, run 7",[3]; 48 hours,0.225
same,"MTS assay result, run 8",[3]; 48 hours,0.27
same,"MTS assay result, run 9",[3]; 48 hours,0.222
same,rel amt (relative value set to the control),[3]; 72 hours,69
same,"MTS assay result, run 1",[3]; 72 hours,0.349
same,"MTS assay result, run 2",[3]; 72 hours,0.316
same,"MTS assay result, run 3",[3]; 72 hours,0.328
same,"MTS assay result, run 4",[3]; 72 hours,0.298
same,"MTS assay result, run 5",[3]; 72 hours,0.323
same,"MTS assay result, run 6",[3]; 72 hours,0.287
same,"MTS assay result, run 7",[3]; 72 hours,0.281
same,"MTS assay result, run 8",[3]; 72 hours,0.275
same,"MTS assay result, run 9",[3]; 72 hours,0.307

# — US8846653B2, “Delta-tocotrienol treatment and prevention of pancreatic cancer” (University of South Florida, priority 2006, dated 2014)
